# In patent US20140121236A1, “Compositions and Methods for Treating Myotonic Dystrophy Type 1” (UNIVERSITY OF SOUTHERN CALIFORNIA, priority 2012, published 2014):
# Experiments:
# DM1 myoblasts [1] = experiment: Toxicity by shape and size of the nuclei of DM1 myoblasts; type: cell-based, human; conditions: Table 1, 10 μM, 4 days
# [2] = tested on: CUG-RNA foci in DM1 myoblasts; experiment: FISH analysis of nuclear CUG-RNA foci in DM1 myoblasts; type: cell-based, human; conditions: 4 days
# Experimental: (§1) DM1 myoblasts were then treated with 10 μM of either RCN-001 or the vehicle (DMSO) for 4 days and then examined by FISH using a Cy3 (CAG)10 probe.
# Normal myoblasts were purchased from Lonza, Inc. DM1 myoblasts were a gift from Dr. Charles Thornton. Normal and DM1 myoblasts were maintained in SkGM Medium (Lonza, Inc.) containing 10% Fetal Bovine Serum and 1% Penicillin-Streptomycin, 5% CO2 at 37° C. Human Embryonic Kidney 293 Cells (293HEK) were maintained in Dulbecco's Modification of Eagle's Medium (DMEM) from Cellgro supplemented with 10% Fetal Bovine Serum and 1% Penicillin-Streptomycin, 5% CO2 at 37° C.
# (§2) CUG-RNA foci were detected by performing FISH on untreated DM1 myoblasts and DM1 myoblasts following treatment. For FISH analysis, DM1 myoblasts were plated on a 24-well clear bottom polystyrene plate with circular glass coverslips followed by treatment. Prior to FISH analysis, cells were fixed using 4% paraformaldehyde in 1×PBS for 20 min at room temperature. FISH analysis was performed using a Cy3 conjugated (CAG)10 oligonucleotide probe (Integrated DNA Technologies, Inc.) as described by Taneja et al, 1995 and Dansithong et al, 2005. CUG-RNA foci were observed as a red signal using fluorescence microscopy. Immunofluorescence was performed as described by Dansithong et al, 2008. Endogenous SHARP was detected using SHARP polyclonal antibodies from Bethyl at a dilution of 1:1000. The secondary antibodies conjugated with FITC (Invitrogen) were used at a 1:2000 dilution. Chloride channel 1 (Clcn1 a.k.a. CIC-1) was detected using CIC-1 polyclonal antibodies from Santa Cruz. The secondary antibodies conjugated with Alexa Flour 488 (Invitrogen) were used at a 1:2000 dilution. FISH analysis in mouse muscle section was carried out as described in Mancodi et al, 2000 (9).
# normal and DM1 myoblasts = experiment: Off-target splicing and RNA steady-state levels (semi-quantitative RT-PCR) in myoblasts; type: cell-based, human
# Text: Semi-quantitative RT-PCR was done as previously described (7,17, 23). Abbreviations: U: Untreated; V: vehicle treated; 16: treated with RCN-001.
# (§3) Results for wild-type and HSA^LR mice are not shown.
# DM1 myoblasts [3] = experiment: Viability of DM1 myoblasts by counting surviving cells; type: cell-based, human; conditions: Table 1, 10 μM, 4 days, surviving cells vs vehicle control
# [4] = tested on: MBNL1 and MBNL2 RNA splicing in DM1 myoblasts; experiment: Splicing assay (RT-PCR) for RNAs from DM1 myoblasts; type: cell-based, human
# Experimental: A. Total RNA was isolated from normal (SKMC) myoblasts, untreated DM1 myoblasts and DM1 myoblasts treated with 50 μM RCN-001 or 50 μM Pentamidine for 17 hours and subjected to RT-PCR analysis using the indicated primers sets for MBNL1 and MBNL2 RNAs. GAPDH RNA was amplified in parallel as an internal control. The results of one of three experiments are shown. B. The relative levels of exon inclusion was measured by densitometry and tabulated as mean % exon inclusion +/− standard deviation.
# Treatment of DM1 myoblasts with RCN-001 is also sufficient to rescue abnormal RNA splicing. Two RNAs were selected that show abnormal splicing in DM1 myoblasts: MBNL1 and MBNL2. DM1 myoblast were treated with 50 μM RCN-001 for 17 hours after which RNA was isolated and splice variants were analyzed as previously described (20-22).
# Splicing assays for RNAs isolated from human myoblasts. DM1 patient myoblasts was treated with 50 μM of RCN-001 or Pentamidine for 17 h as described by Warf et al, 2009. Total RNA was isolated using the RNAeasy mini kit (Qiagen Inc., USA) following manufacture's protocol. cDNA was synthesized using 5 μg of total RNA using First-Strand cDNA synthesis kit (GE Healthcare). PCR amplification was carried out using 150 ng of cDNA for 35 cycles for each target RNA. The primers used for PCR amplification are as follows—
# The relative band intensities were measured using densitometry analyses and the percent of exon inclusion was calculated as [exon inclusion/(exon inclusion+exon exclusion)]×100.
# wild-type and HSALR mice = experiment: Off-target splicing and RNA steady-state levels in mice; type: in vivo
# Text: as §3
# SHARP = SHARP immunofluorescence in DM1 myoblasts; type: cell-based, human; conditions: RCN-001 treatment for 4 days (not shown)
# Experimental: as §1, §2
smiles,measurement,setting,value
CCCCCCc1cc2cc(-c3nnc(-c4cccc(OC)c4)o3)c(=O)oc2cc1O [RCN-001],Toxicity: Toxic,DM1 myoblasts [1],++++ (60% alterations in nuclei shape and size)
same,decrease in cells containing 3 or more foci,"[2]; 10 μM, vs vehicle (DMSO)",~5 fold
same,increase in cells containing no foci,"[2]; 10 μM, vs vehicle (DMSO)",~10 fold
same,# of Foci (percentage) 0-1: Percentage of cells with no or 1 nuclear foci,"[2]; Table 1, 10 μM, FISH",48 percentage
same,# of Foci (percentage) >2: Percentage of cells with 2 or greater nuclear foci,"[2]; Table 1, 10 μM, FISH",52 percentage
same,off target effects on steady-state levels of endogenous (CUG)6-25 repeat encoding RNAs,normal and DM1 myoblasts; normal and DM1 myoblasts (FIG. 6C),does not show significant off target effects
same,splice patterns of RNAs that are abnormally spliced in DM1,normal and DM1 myoblasts; normal myoblasts (FIG. 6B),does not alter splice patterns
same,splice patterns of RNAs that are normally spliced in DM1,normal and DM1 myoblasts; normal or DM1 myoblasts (FIG. 6A),does not alter splice patterns
same,Toxicity: Viable,DM1 myoblasts [3],++ (30-40% cell survival)
same,rescue of abnormal splicing of MBNL1 and MBNL2,"[4]; 50 μM, 17 hours, RT-PCR",significantly rescues abnormal splicing of MBNL1 and MBNL2
same,"rescue of aberrant splicing of MBNL1, MBNL2, and IR in DM1 myoblasts","[4]; FIG. 6B, semi-quantitative RT-PCR",rescues aberrant splicing
same,off target effects on steady-state levels of endogenous (CUG)6-25 repeat encoding RNAs,wild-type and HSALR mice; wild-type and HSALR mice (not shown),does not show significant off target effects
same,splice patterns of RNAs that are abnormally spliced in DM1,wild-type and HSALR mice; wild-type mice (not shown),does not alter splice patterns
same,splice patterns of RNAs that are normally spliced in DM1,wild-type and HSALR mice; wild-type or HSALR mice (not shown),does not alter splice patterns
same,SHARP mislocalization / nuclear SHARP levels in DM1 myoblast,SHARP,significantly reversed SHARP mislocalization and re-established nuclear SHARP levels
